Experiment [1] relates to Aspergillus flavus. Description: Antimicrobial activity against Aspergillus flavus assessed as growth inhibition by microdilution method. Format: functional.
Experiment [2] deals with Klebsiella aerogenes. Description: Antimicrobial activity against Enterobacter aerogenes assessed as growth inhibition by microdilution method. (Broth dilution looks for growth in wells or tubes with falling amounts of substance.)
Experiment [3] has as its system Aspergillus niger. Description: Antimicrobial activity against Aspergillus niger assessed as growth inhibition by microdilution method. Format: functional.
For experiment [4], the system named is Curvularia australiensis. Description: Antimicrobial activity against Curvularia australiensis assessed as growth inhibition by microdilution method. The experiment is classed as functional.
Experiment [5] has as its system Streptococcus pyogenes. Description: Antimicrobial activity against Streptococcus pyogenes assessed as growth inhibition by microdilution method.
In experiment [6] the test system is Staphylococcus aureus. Description: Antimicrobial activity against Staphylococcus aureus assessed as growth inhibition by microdilution method.
Experiment [7] relates to Escherichia coli. Description: Antimicrobial activity against Escherichia coli assessed as growth inhibition by microdilution method.
The test system of experiment [8] is Salmonella typhimurium. Description: Antimicrobial activity against Salmonella enterica subsp. enterica serovar Typhimurium assessed as growth inhibition by microdilution method.
Experiment [9] concerns Alternaria alternata. Description: Antimicrobial activity against Alternaria alternata assessed as growth inhibition by microdilution method. The experiment is classed as functional.
Experiment [10] relates to Trichoderma reesei. Description: Antimicrobial activity against Trichoderma reesei assessed as growth inhibition by microdilution method. The experiment is classed as functional.
Experiment [11] relates to Bacillus subtilis. Description: Antimicrobial activity against Bacillus subtilis assessed as growth inhibition by microdilution method.

In general, MIC refers to the lowest concentration that inhibits growth of the organism. Turning to `Cc1cccc2cc3c(nc12)SC(Nc1ccc(Cl)cc1)=NN=C3`, the MIC in experiment [1] amounted to 250 µg/mL; in [2] it was 1000 µg/mL; in experiment [3], 1000 µg/mL; in experiment [4] it was 500 µg/mL; in experiment [5], 1000 µg/mL; in [6], 1000 µg/mL. Moreover, the MIC was 1000 µg/mL in [7]; 1000 µg/mL in experiment [8]; 500 µg/mL in experiment [9]; 1000 µg/mL in experiment [10]; 1000 µg/mL in experiment [11].

`COc1ccc2nc3c(cc2c1)C=NN=C(NCc1ccccc1)S3`: the MIC in experiment [1] came to 1000 µg/mL; in experiment [2], 125 µg/mL; in experiment [3], 1000 µg/mL; in experiment [4], 1000 µg/mL; in experiment [5], 1000 µg/mL; in [6], 1000 µg/mL. Also, the MIC in [7] was determined as 1000 µg/mL; in experiment [8], 500 µg/mL; in experiment [9] it was 1000 µg/mL; in experiment [10], 500 µg/mL; in experiment [11] it was 1000 µg/mL.

Regarding `COc1ccc2nc3c(cc2c1)C=NN=C(Nc1ccccc1)S3`, the MIC in [1] came to 500 µg/mL; in experiment [2] it was 125 µg/mL; in experiment [3] it was 500 µg/mL; in experiment [4], 500 µg/mL; in experiment [5], 60 µg/mL; in experiment [6], 500 µg/mL. Moreover, the minimal inhibitory concentration (MIC) in [7] was determined as 500 µg/mL; in experiment [8], 60 µg/mL; in experiment [9] it was 500 µg/mL; in experiment [10], 1000 µg/mL; in experiment [11], 500 µg/mL.

On to `Cc1cccc(C)c1NC1=NN=Cc2cc3ccc(Cl)c(C)c3nc2S1`, for which the minimal inhibitory concentration (MIC) in experiment [1] amounted to 500 µg/mL; in [2], 500 µg/mL; in [3], 500 µg/mL; in [4] it was 500 µg/mL; in experiment [5], 60 µg/mL; in experiment [6], 500 µg/mL. The MIC stood at 125 µg/mL in experiment [7]; 1000 µg/mL in experiment [8]; 125 µg/mL in experiment [9]; 250 µg/mL in experiment [10]; 60 µg/mL in [11].

For `COc1ccc2nc3c(cc2c1)C=NN=C(Nc1ccc(Cl)cc1)S3`, the MIC in [1], in experiment [2], in [3], in experiment [4], in experiment [5] and in experiment [6] was 500 µg/mL each time. Moreover, the MIC in experiment [7] stood at 250 µg/mL; in experiment [8], 1000 µg/mL; in experiment [9], 30 µg/mL; in experiment [10], 250 µg/mL; in [11], 60 µg/mL.

Turning to `Cc1c(Cl)ccc2cc3c(nc12)SC(NCc1ccccc1)=NN=C3`, the MIC came to 500 µg/mL in [1]; 500 µg/mL in [2]; 500 µg/mL in experiment [3]; 500 µg/mL in experiment [4]; 1000 µg/mL in experiment [5]; 1000 µg/mL in experiment [6]. Moreover, the MIC in experiment [7] worked out at 1000 µg/mL; in experiment [8], 60 µg/mL; in experiment [9], 500 µg/mL; in experiment [10], 500 µg/mL; in [11], 60 µg/mL.

As to `Cc1cccc2cc3c(nc12)SC(NCCN1CCOCC1)=NN=C3`, the MIC is 250 µg/mL in experiment [1]; 1000 µg/mL in experiment [2]; 500 µg/mL in experiment [3]; 500 µg/mL in experiment [4]; 1000 µg/mL in experiment [5]; 1000 µg/mL in experiment [6]. For the same molecule, the MIC is 1000 µg/mL in [7]; 1000 µg/mL in experiment [8]; 500 µg/mL in [9]; 250 µg/mL in experiment [10]; 1000 µg/mL in experiment [11].

As to `Cc1ccc2nc3c(cc2c1)C=NN=C(Nc1ccccc1Cl)S3`, the MIC in experiment [1] was 500 µg/mL; in experiment [2], 60 µg/mL; in experiment [3] it was above 1000 µg/mL; in experiment [4], 1000 µg/mL; in [5] it was 500 µg/mL; in [6], 1000 µg/mL. Moreover, the MIC in experiment [7] was determined as 500 µg/mL; in [8], 1000 µg/mL; in experiment [9], 1000 µg/mL; in experiment [10], 1000 µg/mL; in [11] it was 1000 µg/mL.

For `CCc1ccc(NC2=NN=Cc3cc4cc(C)ccc4nc3S2)cc1`, the MIC in experiment [1] was 1000 µg/mL; in [2], above 1000 µg/mL; in [3] it was 500 µg/mL; in [4] it was 1000 µg/mL; in experiment [5] it was above 1000 µg/mL; in [6] it was above 1000 µg/mL. The minimum inhibitory concentration (MIC) was above 1000 µg/mL in [7]; above 1000 µg/mL in experiment [8]; 500 µg/mL in experiment [9]; 500 µg/mL in experiment [10]; 1000 µg/mL in experiment [11].

With `Cc1ccc2nc3c(cc2c1)C=NN=C(Nc1cccc(F)c1)S3`, the MIC in [1] was 1000 µg/mL; in [2], above 1000 µg/mL; in [3], 1000 µg/mL; in experiment [4] it was above 1000 µg/mL; in experiment [5], above 1000 µg/mL; in experiment [6], above 1000 µg/mL. The MIC is above 1000 µg/mL in [7]; above 1000 µg/mL in [8]; 500 µg/mL in experiment [9]; 1000 µg/mL in [10]; above 1000 µg/mL in experiment [11].

Regarding `Cc1c(Cl)ccc2cc3c(nc12)SC(Nc1ccc(Cl)cc1)=NN=C3`, the MIC in experiment [1] worked out at 1000 µg/mL; in experiment [2], 500 µg/mL; in [3] it was 500 µg/mL; in experiment [4], 500 µg/mL; in experiment [5], 500 µg/mL; in experiment [6] it was 1000 µg/mL. The MIC turned out to be 500 µg/mL in experiment [7]; 1000 µg/mL in experiment [8]; 250 µg/mL in [9]; 125 µg/mL in experiment [10]; 60 µg/mL in experiment [11].

`Cc1c(Cl)ccc2cc3c(nc12)SC(Nc1ccc(F)cc1)=NN=C3`: the MIC in experiment [1] is 500 µg/mL; in experiment [2], 1000 µg/mL; in [3] it was 500 µg/mL; in experiment [4] it was 500 µg/mL; in [5], 60 µg/mL; in experiment [6] it was 1000 µg/mL. In addition, the MIC in [7] turned out to be 500 µg/mL; in experiment [8], 1000 µg/mL; in experiment [9], 250 µg/mL; in experiment [10] it was 250 µg/mL; in experiment [11], 125 µg/mL.

Regarding `COc1ccc2nc3c(cc2c1)C=NN=C(Nc1cccc(F)c1)S3`, the MIC stood at 500 µg/mL in experiment [1]; 500 µg/mL in [2]; 1000 µg/mL in experiment [3]; 500 µg/mL in experiment [4]; 500 µg/mL in experiment [5]; 500 µg/mL in experiment [6]. Moreover, the minimal inhibitory concentration (MIC) in experiment [7] was found to be 500 µg/mL; in experiment [8], 1000 µg/mL; in experiment [9], 500 µg/mL; in [10], 1000 µg/mL; in experiment [11] it was 60 µg/mL.

Regarding `Cc1ccccc1NC1=NN=Cc2cc3ccc(Cl)c(C)c3nc2S1`, the MIC stood at 1000 µg/mL in [1]; 250 µg/mL in experiment [2]; 500 µg/mL in experiment [3]; 500 µg/mL in experiment [4]; 250 µg/mL in [5]; 500 µg/mL in experiment [6]. Also, the MIC in experiment [7] came to 250 µg/mL; in experiment [8], 500 µg/mL; in [9], 250 µg/mL; in experiment [10], 60 µg/mL; in experiment [11], 60 µg/mL.

Turning to `Cc1ccc(NC2=NN=Cc3cc4cccc(C)c4nc3S2)c(C)c1`, the MIC in experiment [1] stood at 500 µg/mL; in experiment [2], 1000 µg/mL; in experiment [3], 1000 µg/mL; in [4] it was 500 µg/mL; in [5], 1000 µg/mL; in experiment [6] it was 1000 µg/mL. Moreover, the MIC in experiment [7] was 1000 µg/mL; in experiment [8], 1000 µg/mL; in experiment [9], 500 µg/mL; in experiment [10], 250 µg/mL; in experiment [11], 1000 µg/mL.

For `COc1ccc2nc3c(cc2c1)C=NN=C(Nc1ccccc1Cl)S3`, the MIC turned out to be 500 µg/mL in [1]; 125 µg/mL in experiment [2]; 500 µg/mL in [3]; 500 µg/mL in [4]; 30 µg/mL in experiment [5]; 1000 µg/mL in [6]. For the same molecule, the MIC in experiment [7] is 500 µg/mL; in experiment [8], 60 µg/mL; in experiment [9], 500 µg/mL; in [10], 500 µg/mL; in [11], 30 µg/mL.

For the molecule `Cc1ccc2nc3c(cc2c1)C=NN=C(NCc1ccccc1)S3`, the MIC in experiment [1] was above 1000 µg/mL; in experiment [2], 1000 µg/mL; in experiment [3] it was 1000 µg/mL; in experiment [4], 1000 µg/mL; in experiment [5] it was 1000 µg/mL; in experiment [6] it was 1000 µg/mL. The MIC in experiment [7] was 1000 µg/mL; in [8] it was 1000 µg/mL; in experiment [9], 1000 µg/mL; in experiment [10], 500 µg/mL; in experiment [11] it was 1000 µg/mL.

As for `Cc1c(Cl)ccc2cc3c(nc12)SC(Nc1ccccc1F)=NN=C3`, the MIC in [1] was found to be 500 µg/mL; in experiment [2], 500 µg/mL; in [3] it was 500 µg/mL; in experiment [4], 1000 µg/mL; in experiment [5] it was 60 µg/mL; in experiment [6], 500 µg/mL. In addition, the MIC stood at 500 µg/mL in experiment [7]; 500 µg/mL in [8]; 500 µg/mL in [9]; 250 µg/mL in [10]; 60 µg/mL in experiment [11].

As for `COc1ccc2nc3c(cc2c1)C=NN=C(Nc1ccc(C)cc1)S3`, the MIC is 1000 µg/mL in experiment [1]; 500 µg/mL in experiment [2]; above 1000 µg/mL in experiment [3]; 500 µg/mL in experiment [4]; 500 µg/mL in [5]; 500 µg/mL in experiment [6]. Besides, the MIC in [7] was found to be 500 µg/mL; in [8] it was 500 µg/mL; in experiment [9] it was 500 µg/mL; in experiment [10], 1000 µg/mL; in experiment [11] it was 250 µg/mL.

Regarding `O=C(N[C@H](CO)[C@H](O)c1ccc([N+](=O)[O-])cc1)C(Cl)Cl` [CHLORAMPHENICOL], the MIC in [2], in experiment [5], in [6], in experiment [7], in experiment [8] and in experiment [11] was 1000 µg/mL throughout.
